Data: patent US20150025017A1, “COMPOSITIONS AND METHODS FOR TREATING CANCER” (Fred Hutchinson Cancer Research Center, priority 2012, published 2015)

Key:
Cells expressing Ras = test: sensitivity of Ras-expressing cells to drugs with reported splicing inhibition; assay type: cell-based; conditions: FIG. 11
[1] = test system: GSCs relative to NSCs (G166 or CB660 cells); test: cell viability of GSC or NSC cells after SSA / SudC1 (AlamarBlue); assay type: cell-based, human; conditions: dilution series; FIGS. 3B and 3C
Source text: (§1) Along with high MPM-2 staining, and little or no phosphorylated BubR1, this is consistent with a pre-anaphase arrest in which the mitotic checkpoint has not been triggered.

H2B-GFP expressing GSCs = test: metaphase capture assay with MG132; assay type: cell-based, human; conditions: overnight exposure to drug, then MG132 for 2 hours
Description: The GSC-specific G2/M arrest was characterized by performing metaphase capture assays in H2B-GFP expressing GSCs treated with proteasome inhibitor MG132, which arrests mitotic cells at metaphase, blocking APCCdc20-dependent degradation of Cyclin B (Lampson and Kapoor 2005). After overnight exposure to SudC1 or SSA, cells were treated with MG132 for 2 hours. […] It was also observed that the viability loss in drug-treated GSC cultures results from the death of previously arrested mitotic cells and not interphase GSCs, identifying the cancer-specific mitotic arrest as a causative event in cancer cell death due to splicing inhibition.

U2 snRNP subunit SF3b = U2 snRNP subunit SF3b (Homo sapiens, UniProt O75533+Q7RTV0); conditions: Kaida et al. 2007; Corrionero et al. 2011; cited from earlier work
GSCs and NSCs = test: cell cycle arrest after SSA or SudC1; assay type: cell-based, human; conditions: at doses within the efficacy window; data not shown
Source text: as §1

GSC-H2B-GFP cells = test: live cell imaging of drug-treated cells; assay type: cell-based, human; conditions: for timing of mitoses: GSCs, first hours after drug treatment; for mitotic arrest in live cell imaging: data not shown
GSCs = test: cell cycle arrest phenotype (rounded cells) in GFP-expressing GSCs after shRNA; assay type: cell-based, human; conditions: FIG. 2
Source text: Arrows point to rounded cells, which are those showing a cell arrest phenotype.
In addition, the GSC and NSC containing two of the shRNA sequences targeting PHF5α, KIF11 (positive control), and a random clone (negative control) were examined by immunofluorescence analysis using DAPI staining and a fluorescent microscope. Cells that appeared balled up are ones that suffered cell cycle arrest, while elongated cells were unaffected in their proliferation. […] In contrast, inhibition of PHF5α produced a striking phenotype of a G2/M mitotic arrest in GSCs, but not in NSCs (data not shown).
Ryzinski et al. (Cytogenet. […] Res. 121:232, 2008) identified PHF5α as a bridge protein capable of connecting members of the U2 snRNP, especially U2AF1 to RNA helicases, especially DDX1. To test whether, out of the possible known or unknown roles in a cell, the splicing functions of PHF5α is an important activity contributing to GSC survival and proliferation, shRNA knockdown similar to Example 2 was performed against each member of this bridging interaction—U2AF1 and DDX1.

[2] = test system: Non-transformed MEF cells; test: viability after sudemycin treatment; assay type: cell-based, mouse
RNA splicing = conditions: Lagisetti et al. 2008, 2009; Fan et al. 2011; cited from earlier work
[3] = test system: MEF cells with the addition of oncogenic Ras signaling; test: viability after sudemycin treatment; assay type: cell-based, mouse
Source text: Approximately 88% of clinical glioblastoma tumors harbor mutations that activate signaling through the Ras/PI3-kinase pathways (The Cancer Genome Atlas Research Network, Nature 455:1061, 2008). Since PHF5α inhibition is detrimental to a range of glioblastoma cell cultures, but not to the normal NSC from which most glioblastomas are thought to arise, transformation from a normal cell to a cancer cell was examined to determine whether PHF5α dependence was acquired during this process. Accordingly, Ras signaling was activated in normal IMR90 fibroblast cells by infecting with a retrovirus encoding the ElA and Ras oncogenes (EIA was included because Ras alone would be lethal in these cells). These partially transformed fibroblasts were probed for their response to shPHF5α inhibition and to a U2 snRNP splicing inhibitor (sudemycin C1). Viral shRNA knockdown was performed as described in the above examples. For drug response assays, cells were plated in 96-well plates and contacted with a range of sudemycin C1 concentrations (0.08, 0.16, 0.31, 0.63, 1.25, 2.50, 5.0 or 10.0 μM) for a period of 24 hours. Media was then removed and replaced with fresh media, then cell viability was measured 72 hours after drug exposure using the alamarBlue® assay (Invitrogen). […]

IMR90+E1A/Ras = test: drug response assay, alamarBlue viability; assay type: cell-based, human; conditions: 0.08-10.0 μM for 24 hours, viability at 72 hours; FIG. 9A
Source text: (§2) Approximately 88% of clinical glioblastoma tumors harbor mutations that activate signaling through the Ras/PI3-kinase pathways (The Cancer Genome Atlas Research Network, Nature 455:1061, 2008). Since PHF5α inhibition is detrimental to a range of glioblastoma cell cultures, but not to the normal NSC from which most glioblastomas are thought to arise, transformation from a normal cell to a cancer cell was examined to determine whether PHF5α dependence was acquired during this process. Accordingly, Ras signaling was activated in normal IMR90 fibroblast cells by infecting with a retrovirus encoding the ElA and Ras oncogenes (EIA was included because Ras alone would be lethal in these cells). These partially transformed fibroblasts were probed for their response to shPHF5α inhibition and to a U2 snRNP splicing inhibitor (sudemycin C1). Viral shRNA knockdown was performed as described in the above examples. For drug response assays, cells were plated in 96-well plates and contacted with a range of sudemycin C1 concentrations (0.08, 0.16, 0.31, 0.63, 1.25, 2.50, 5.0 or 10.0 μM) for a period of 24 hours. Media was then removed and replaced with fresh media, then cell viability was measured 72 hours after drug exposure using the alamarBlue® assay (Invitrogen).

[4] = test system: normal IMR90 fibroblast cells; test: drug response assay, alamarBlue viability; assay type: cell-based, human; conditions: 0.08-10.0 μM for 24 hours, viability at 72 hours; FIG. 9A
Source text: as §2

[5] = test system: RNA splicing in GSCs and NSCs; test: splicing defects on gels after SudC1; assay type: cell-based, human; conditions: GSCs versus NSCs; FIG. 16
Source text: This example also describes the effects of two candidate small molecule inhibitors of the U2 snRNP complex, Spliceostatin A (SSA) and Sudemycin C1 (SudC1). […] (Kaida et al. 2007; Corrionero et al. 2011). […] It was reasoned that if the most relevant GSC-specific function of PHF5A is its function in the splicing activity of the U2 snRNP, then these drugs should show a similar pattern of effects on RNA splicing in GSCs and NSCs. This was indeed the case. […] In addition, after PHF5A knockdown, multiple constitutive exons of the well characterized RTK/Ras signaling effector RAF1 and the cancer-associated deacetylase HDAC6 were skipped GSCs but not in normal NSCs.

PHF5α = test: immunostained western blot of PHF5α protein after shRNA; assay type: cell-based, human; conditions: GSCs (G166, 0827, 0131) and NSCs, relative to shCtrl; FIG. 1B
Chain of PHF5α (Q7RTV0 whole entry): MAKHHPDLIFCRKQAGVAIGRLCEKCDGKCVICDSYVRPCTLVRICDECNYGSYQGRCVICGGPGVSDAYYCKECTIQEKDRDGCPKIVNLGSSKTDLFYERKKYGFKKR
Source text: (B) is an immunostained western blot showing PHF5α protein levels are reduced in GSCs (G166, 0827, 0131) and NSCs when exposed to a short hairpin RNA (shRNA) that reduces PHF5α RNA levels (shPHF5α-133 (SEQ ID NO.:11), shPHF5α-402 (SEQ ID NO.:10), shPHF5α-861 (SEQ ID NO.:9)) relative to the levels of PHF5α in cells treated with a non-silencing control shRNA (shCtrl).
(§3) To verify the robustness and reproducibility of PHF5α loss in GSC growth inhibition, the normal NSC control cells and a panel of five GSC primary cell cultures were infected with viruses encoding three different shRNA sequences targeting PHF5α (shPHF5α-133 (SEQ ID NO.:11), shPHF5α-402 (SEQ ID NO.:10), and shPHF5α-861 (SEQ ID NO.:9)), as well as a positive control (shKIF11-555 (SEQ ID NO.:19); blocking kinesin family member 11 (KIF11) prevents centrosome migration, which arrests cells in mitosis) and negative control (shCtrl). Cultures were selected with puromycin, plated at about 1000 cells per well in 96-well plates, and incubated for one week at 37° C./5% CO2 before assaying cell viability using the alamarBlue® assay (Invitrogen, Gand Island, N.Y.). Briefly, resazurin (a blue compound that is non-toxic, cell permeable compound and essentially non-fluorescent) is added to the cell cultures, which is reduced to resorufin upon entering metabolically active cells (in contrast, non-viable or damaged cells cannot do this effectively). Resorufin is a bright red fluorescent molecule that functions as a colorimetric indicator. In addition, all three shRNA viruses were internally validated to knock down PHF5α at both the RNA and protein levels (data not shown).

[6] = test system: GSC primary cell cultures and normal NSC control cells; test: alamarBlue cell viability after shRNA knockdown; assay type: cell-based, human; conditions: shRNA virus, puromycin selection, one week, FIG. 1A
Source text: as §3

In the case of `Clc1ccccc1C(c1ccccc1)(c1ccccc1)n1ccnc1` [Clotrimazole], the “differential sensitivity of cells expressing Ras” value (“differential sensitivity” below) (Cells expressing Ras) is reported as “not differentially sensitive”.
In the case of `CO[C@]1(C)C[C@@]2(CO2)[C@H](O)[C@@H](/C=C/C(C)=C/C[C@@H]2O[C@H](C)[C@H](NC(=O)/C=C\[C@H](C)OC(C)=O)C[C@@H]2C)O1` [SSA, Spliceostatin A], the “differential sensitivity” value (Cells expressing Ras) is reported as “differentially sensitive”, the “viability loss in GSCs relative to NSCs” value [1] is reported as “greater dose-dependent viability loss in GSCs relative to NSCs” and the “metaphase arrest with MG132” value (H2B-GFP expressing GSCs) is reported as “unable to properly arrest”. The “binding and inhibition of SF3b” value (U2 snRNP subunit SF3b) was “binds to and inhibits”, the cell cycle arrest (GSCs and NSCs) was “characteristic cell cycle arrest in GSCs but not NSCs” and the timing of mitoses (GSC-H2B-GFP cells) was “did not affect the timing of mitoses for several hours after drug treatment”. The “mitotic arrest in live cell imaging” value (GSC-H2B-GFP cells) was “mitotic arrest pre-metaphase”.
In the case of `CCN1/C(=C/C(C)=O)Sc2ccc(OC)cc21` [TG003], the “differential sensitivity” value (Cells expressing Ras) is reported as “not differentially sensitive”.
In the case of `[H]/N=C(\N/C(=N/[H])NCCCCCCNC(=N)NC(=N)Nc1ccc(Cl)cc1)Nc1ccc(Cl)cc1` [chlorhexidine], the “differential sensitivity” value (Cells expressing Ras) is reported as “not differentially sensitive”.
With `Fc1ccc(C(c2ccc(F)cc2)N2CCN(C/C=C/c3ccccc3)CC2)cc1` [flunarizine] the “differential sensitivity” value (Cells expressing Ras) was “not differentially sensitive”.
With “DDX1-301: shRNA targeting DDX1, ACACGGTGTTCCTTATGTTATA, SEQ ID NO. 18 (listed as DNA, chemistry not fully specified)” the cell cycle arrest (GSCs) was “undergone cell cycle arrest”.
In the case of Pladienolide B, the “differential sensitivity” value (Cells expressing Ras) is reported as “differentially sensitive”.
For Sudemycin C1 [SudC1], the “sensitivity of cell viability” value [2] is listed as “relatively resistant”, the “modulation of RNA splicing” value (RNA splicing) is listed as “modulates RNA splicing” and the “differential sensitivity” value (Cells expressing Ras) is listed as “differentially sensitive”. The “viability loss in GSCs relative to NSCs” value [1] was “greater dose-dependent viability loss in GSCs relative to NSCs”, the “metaphase arrest with MG132” value (H2B-GFP expressing GSCs) was “unable to properly arrest” and the “sensitivity of cell viability” value [3] was “greatly sensitized”. The cell cycle arrest (GSCs and NSCs) was “characteristic cell cycle arrest in GSCs but not NSCs”, the “sensitivity of cell viability” value (IMR90+E1A/Ras) was “greatly sensitized” and the “sensitivity of cell viability” value [4] was “relatively resistant”. For the same compound, the timing of mitoses (GSC-H2B-GFP cells) was “did not affect the timing of mitoses for several hours after drug treatment”, the “mitotic arrest in live cell imaging” value (GSC-H2B-GFP cells) was “mitotic arrest pre-metaphase” and the splicing defects [5] was “dose-dependent GSC-specific splicing defects”.
For “shPHF5α-133: shRNA targeting PHF5α, ACTCAACCAAGATCTTCTAAAA, SEQ ID NO. 11 (listed as DNA, chemistry not fully specified)”, the PHF5α protein levels (PHF5α) was “reduced” and the “proliferation of GSCs compared to NSCs” value [6] was “greater reduction in proliferation of GSCs compared to normal neural stem cells”.
In the case of “shPHF5α-402: shRNA targeting PHF5α, AGCATTTACTTGTTTAACACTT, SEQ ID NO. 10 (listed as DNA, chemistry not fully specified)”, the PHF5α protein levels (PHF5α) is reported as “reduced” and the “proliferation of GSCs compared to NSCs” value [6] is reported as “greater reduction in proliferation of GSCs compared to normal neural stem cells”.
For “shPHF5α-861: shRNA targeting PHF5α, CGCCCACTAGTCTCATATTATT, SEQ ID NO. 9 (listed as DNA, chemistry not fully specified)”, the cell cycle arrest (GSCs) was “undergone cell cycle arrest”, the PHF5α protein levels (PHF5α) was “reduced” and the “proliferation of GSCs compared to NSCs” value [6] was “greater reduction in proliferation of GSCs compared to normal neural stem cells”.
With “shU2AF1-100: shRNA targeting U2AF1, CGGCTGTGATTGACTTGAATAA, SEQ ID NO. 1 (listed as DNA, chemistry not fully specified)” the cell cycle arrest (GSCs) was “undergone cell cycle arrest”.
